Values after ≈ are worked out from the molar mass of the structure shown. Values joined by “and” are separate entries in the source; they are usually repeats but may differ in a detail not shown here. Identical values can stand only once. Like-named read-outs stand apart in the source and are kept apart here.
How the values were obtained:
[1] = CNS safety pharmacology study in rats; format: in vivo, rat; conditions: oral administration
[2] = Cardiovascular safety pharmacology in dogs; format: in vivo, dog; conditions: oral administration
[3] = system: A431 vaginal epidermoid human cancer cell line; conditions: NU/Nu Balb/C mice, paclitaxel alone 30 mg/kg IV, 1x weekly for 3 weeks
Description: (§1) In these studies, tumor inhibition rate (IR %) was calculated as ([1−relative tumor growth in treated group/relative tumor growth in control group]×100). Tumor regression was calculated as (Mean Tumor WeightEnd of treatment/Mean tumor WeightBeginning of treatment)×100. Therefore, a value <100% for tumor regression indicates a decrease in tumor weight over the course of the study and a value >100% indicates an increase in tumor weight. Tumor growth delay was calculated as the median number of days to reach two tumor mass doublings.

[4] = system: MDA-MB-231 mammary human cancer cell line; conditions: NCr-nu (athymic) mice, paclitaxel alone 18 mg/kg IV, every other day for 4 doses
Description: as §1

[5] = system: HT-29 colon human cancer cell line; conditions: NU/Nu Balb/C mice
Description: as §1

[6] = system: SK-OV-3 ovarian human cancer cell line; conditions: NCr-nu (athymic) mice, paclitaxel alone 18 mg/kg IV, every other day for 4 doses
Description: as §1

[7] = system: NCI-H460 lung human cancer cell line; conditions: Athymic nude mice, paclitaxel alone 24 mg/kg IV, every other day for 4 doses
Description: as §1

[8] = system: SKOV-3 ovarian human cancer cell line; conditions: NU/Nu Balb/C mice, paclitaxel alone 30 mg/kg IV, 1x weekly for 3 weeks
Description: as §1

[9] = for AUCinf / AUClast / CL/F / Cmax / MRTinf / Vd/F / t1/2 / CLR: in vivo, po
[10] = dogs
[11] = system: tubulin in MS1, SVRA221a, and SVRbag4 cell lines; assay: Immunofluorescence microscopy of tubulin disruption; format: cell-based, mouse; conditions: SVRbag4 treated with 1-100 nM paclitaxel for 3 hours
Description: Coverslips (22-mm) were pre-coated with rat tail collagen for 1 hour then seeded with cells in 6-well plates for 24 hours before treatment. […] After blocking with 2% BSA in PBS for 30 min, cells were incubated with anti α-tubulin antibody (Sigma 6199) diluted in blocking buffer (2% BSA in PBS) for 1.5 hours at room temperature. Cells were washed three times with PBS and incubated with […] anti-Mouse IgG (Invitrogen) for 1 hours at room temperature. Following three PBS washes, coverslips were mounted on glass slides in ProLong antifade reagent (Invitrogen). Fluorescent images were captured using a Nikon TE2000-E inverted microscope for two independent experiments.

[12] = system: SVRA221a cells; assay: In vitro cytotoxicity (MTT) in SVRA221a cells; format: cell-based, mouse; conditions: 72 hours, Mean ± SD
Description: (§2) Three independent experiments of two replicates were completed. A 10 μL aliquot of 3-(4,5-dimethylthiazol-2-yl)-2,5-diphenyltetrazolium bromide (MTT) solution (5 mg/mL in PBS) was added to each well and incubated at 37° C. for 2 hours. The culture medium was removed followed by addition of 100 μL of DMSO to each well. The absorbance in each well was measured at 540 nm using a SpectraMax microplate reader. A sigmoid Emax model using nonlinear regression (Equation 1) with least squares fit was used to estimate Emax and GI50 values using GraphPad Prism 6 for each experiment:
(§3) The average Emax and GI50 values and standard deviated from three individual experiments were calculated and reported. R-squared of all curve fits exceeded 0.9.

[13] = Paclitaxel pharmacokinetics in dogs after single oral dose with Compound A; format: in vivo, dog
[14] = human; for AUC0-24 / Cmax: range across dose levels, 2 consecutive daily oral doses
Description: A 2-part study was conducted in subjects with advanced/metastatic or recurrent gastric cancer. […] In some cases, an additional 15 mg tablet of Compound A on Day 2 was given in each dosing week. A total of 56 subjects enrolled in this study: 10 subjects with advanced malignant tumors in Part 1 and 46 subjects with advanced gastric cancer in Part 2.

[15] = Paclitaxel pharmacokinetics in rats after single oral dose with Compound A; format: in vivo, rat
[16] = system: HMEC-1 cells; assay: In vitro cytotoxicity (MTT) in HMEC-1 cells; format: cell-based, human; conditions: HMEC-1, 72 hours, Mean ± SD
Description: as §2, §3

[17] = system: MS1 cells; assay: In vitro cytotoxicity (MTT) in MS1 cells; format: cell-based, mouse; conditions: MS1, 72 hours, Mean ± SD
Description: as §2, §3

[18] = system: SVRbag4 cells; assay: In vitro cytotoxicity (MTT) in SVRbag4 cells; format: cell-based, mouse; conditions: SVRbag4, 72 hours, Mean ± SD
Description: as §2, §3

[19] = Fasted, single oral dose paclitaxel 6 mg/kg with Compound A 3 mg/kg
[20] = Fed, single oral dose paclitaxel 6 mg/kg with Compound A 3 mg/kg
[21] = Mus musculus, medium pre-supplemented with 1 μM Compound A
[22] = single oral dose paclitaxel 2 mg/kg with Compound A
[23] = single oral dose paclitaxel 4 mg/kg with Compound A
[24] = single oral dose paclitaxel 6 mg/kg with Compound A
[25] = single oral dose paclitaxel 5 mg/kg with Compound A
[26] = single oral dose paclitaxel 10 mg/kg with Compound A
[27] = single oral dose paclitaxel 20 mg/kg with Compound A
[28] = single oral dose paclitaxel 30 mg/kg with Compound A
[29] = single oral dose paclitaxel 40 mg/kg with Compound A
[30] = single oral dose paclitaxel 50 mg/kg with Compound A

For COc1cc2c(cc1OC)CN(CCc1ccc(-n3nnc(-c4cc(OC)c(OC)cc4NC(=O)c4cc(=O)c5ccccc5o4)n3)cc1)CC2 [Compound A], the “Effect on body temperature” value [1] was “absence” and the “Effect on PR and QRS intervals” value [2] was “absence”.

In the case of CC(=O)O[C@H]1C(=O)[C@@]2(C)[C@H]([C@H](OC(=O)c3ccccc3)[C@]3(O)C[C@H](OC(=O)[C@H](O)[C@@H](NC(=O)c4ccccc4)c4ccccc4)C(C)=C1C3(C)C)[C@]1(OC(C)=O)CO[C@@H]1C[C@@H]2O [Paclitaxel, 5,20-Epoxy-1,2,4,7,10-13-hexahydroxytax-11-en-9-one-4,10-diacetate 2-benzoate 13-ester with (2R,3S)—N-benzoyl-3-phenylisoserine], the “Effect: tumor inhibition rate (IR %)” value [3] is reported as 45.41 IR %, the “Effect: growth delay” value [4] is reported as >55.9 days and the “Effect: tumor regression” value ([5]; paclitaxel alone 20 mg/kg IV every 4 days for 4 doses, >100% = increase in tumor weight) is reported as 163.09% tumor. For the same compound, the “Effect: tumor inhibition rate (IR %)” value ([5]; paclitaxel alone 25 mg/kg IP every 4 days for 4 doses) was 65.82 IR %, the “Effect: growth delay” value [6] was 43.8 days and the “Effect: growth delay” value [7] was 16.3 days. The “Effect: tumor inhibition rate (IR %)” value [8] was 72.79 IR %, the MTD ([9]; 24 subjects with advanced solid cancer, oral paclitaxel 60 to 420 mg/m^2 on days 1, 8, 15 of 28-day cycle with Compound A) was “not reached” and the AUCinf ([9]; human, 60 mg/m2) was 727.1 ng·h/mL. For the same compound, the AUClast ([9]; human, 60 mg/m2) was 584.1 ng·h/mL, the CL/F ([9]; human, 60 mg/m2) was 178.4 L/h and the Cmax ([9]; human, 60 mg/m2) was 149.6 ng/mL. The MRTinf ([9]; human, 60 mg/m2) was 28.6 h, the Vd/F ([9]; human, 60 mg/m2) was 9128.7 L and the t1/2 ([9]; human, 60 mg/m2) was 32.1 h. It also gave an AUCinf ([9]; human, 120 mg/m2) of 1840.1 ng·h/mL, an AUClast ([9]; human, 120 mg/m2) of 1611.1 ng·h/mL and a CLR ([9]; human, 120 mg/m2) of 3.0 L/h. For the same compound, the MRTinf ([9]; human, 120 mg/m2) was 17.0 h, the Vd/F ([9]; human, 120 mg/m2) was 4036.0 L and the AUCinf ([9]; human, 180 mg/m2) was 1985.0 ng·h/mL. It also gave an AUClast ([9]; human, 180 mg/m2) of 1673.9 ng·h/mL, a CL/F ([9]; human, 180 mg/m2) of 173.4 L/h and a CLR ([9]; human, 180 mg/m2) of 1.8 L/h. For the same compound, the Cmax ([9]; human, 180 mg/m2) was 432.0 ng/mL, the MRTinf ([9]; human, 180 mg/m2) was 21.9 h and the Vd/F ([9]; human, 180 mg/m2) was 6030.7 L. It also gave a t1/2 ([9]; human, 180 mg/m2) of 24.4 h, an AUCinf ([9]; human, 240 mg/m2) of 2971.2 ng·h/mL and an AUClast ([9]; human, 240 mg/m2) of 2547.4 ng·h/mL. For the same compound, the CL/F ([9]; human, 240 mg/m2) was 147.6 L/h, the CLR ([9]; human, 240 mg/m2) was 2.4 L/h and the Cmax ([9]; human, 240 mg/m2) was 509.6 ng/mL. For the same compound, the MRTinf ([9]; human, 240 mg/m2) was 23.4 h, the Vd/F ([9]; human, 240 mg/m2) was 6011.5 L and the t1/2 ([9]; human, 240 mg/m2) was 25.7 h. The AUCinf ([9]; human, 300 mg/m2) was 3481.1 ng·h/mL, the AUClast ([9]; human, 300 mg/m2) was 3135.0 ng·h/mL and the CLR ([9]; human, 300 mg/m2) was 2.0 L/h. For the same compound, the MRTinf ([9]; human, 300 mg/m2) was 16.2 h, the Vd/F ([9]; human, 300 mg/m2) was 4927.3 L and the AUCinf ([9]; human, 360 mg/m2) was 2851.7 ng·h/mL. For the same compound, the AUClast ([9]; human, 360 mg/m2) was 2512.1 ng·h/mL, the CL/F ([9]; human, 360 mg/m2) was 228.7 L/h and the CLR ([9]; human, 360 mg/m2) was 7.3 L/h. For the same compound, the Cmax ([9]; human, 360 mg/m2) was 655.0 ng/mL, the MRTinf ([9]; human, 360 mg/m2) was 18.7 h and the Vd/F ([9]; human, 360 mg/m2) was 6837.8 L. It also gave a t1/2 ([9]; human, 360 mg/m2) of 20.8 h, an AUCinf ([9]; human, 420 mg/m2) of 3731.5 ng·h/mL and an AUClast ([9]; human, 420 mg/m2) of 3407.1 ng·h/mL. The CL/F ([9]; human, 420 mg/m2) was 244.9 L/h, the CLR ([9]; human, 420 mg/m2) was 2.9 L/h and the Cmax ([9]; human, 420 mg/m2) was 707.5 ng/mL. It also gave an MRTinf ([9]; human, 420 mg/m2) of 14.7 h, a Vd/F ([9]; human, 420 mg/m2) of 7175.1 L and a t1/2 ([9]; human, 420 mg/m2) of 19.9 h. The T1/2 ([9]; human, range over oral paclitaxel doses 60 to 420 mg/m^2 with Compound A) was 19.9 to 32.1 h, the AUClast [10, 19] was 1599.8 ± 416.5 ng·h/mL and the CL/F [10, 19] was 4.2 ± 1.2 L/h. For the same compound, the Tmax [10, 19] was 0.5 ± 0.0 h, the t1/2 [10, 19] was 9.4 ± 0.3 h and the AUClast [10, 20] was 849.1 ± 119.9 ng·h/mL. The CL/F [10, 20] was 6.4 ± 1.3 L/h, the Cmax [10, 20] was 299.0 ± 54.6 ng/mL and the Tmax [10, 20] was 0.7 ± 0.2 h. The t1/2 [10, 20] was 9.9 ± 2.7 h, the “Paclitaxel Cmax and AUC, fasted group as compared to fed group” value ([10]; orally administered paclitaxel) was ~2 fold and the “concentration at which condensed and rounded morphology and polymerization of microtubules start” value [11] was 5-10 nM and 4.2-8.5 ng/mL. For the same compound, the “Emax (% inhibition)” value [12] was 96 ± 1.1 % inhibition, the GI50 [12, 21] was 1.8 ± 1 ng/mL (≈ 2.11 nM) and the “AUClast Paclitaxel” value [13, 22] was 413 ng·h/mL. For the same compound, the “Tmax Paclitaxel” value [13, 22] was 0.5 h, the “AUClast Paclitaxel” value [13, 23] was 1331 ng·h/mL and the “Tmax Paclitaxel” value [13, 23] was 0.7 h. For the same compound, the “AUClast Paclitaxel” value [13, 24] was 2123 ng·h/mL, the “Tmax Paclitaxel” value [13, 24] was 0.5 h and the “Overall exposure on Day 2, higher than Day 1” value ([14]; in vivo, po) was 20-30%. For the same compound, the AUC0-24 ([14]; Day 1) was 611 to 894 ng·h/mL, the Cmax ([14]; Day 1) was 202 to 280 ng/mL and the AUC0-24 ([14]; Day 2) was 735 to 1081 ng·h/mL. For the same compound, the Cmax ([14]; Day 2) was 159 to 315 ng/mL, the “AUClast Paclitaxel” value [15, 25] was 333 ng·h/mL and the “Cmax Paclitaxel” value [15, 25] was 103 ng/mL. For the same compound, the “Tmax Paclitaxel” value [15, 25] was 0.6 h, the “AUClast Paclitaxel” value [15, 26] was 1027 ng·h/mL and the “Cmax Paclitaxel” value [15, 26] was 356 ng/mL. The “Tmax Paclitaxel” value [15, 26] was 0.7 h, the “AUClast Paclitaxel” value [15, 27] was 3009 ng·h/mL and the “Cmax Paclitaxel” value [15, 27] was 852 ng/mL. The “Tmax Paclitaxel” value [15, 27] was 1.2 h, the “AUClast Paclitaxel” value [15, 28] was 6638 ng·h/mL and the “Cmax Paclitaxel” value [15, 28] was 1761 ng/mL. The “Tmax Paclitaxel” value [15, 28] was 1.2 h, the “t1/2 Paclitaxel” value [15, 28] was 6.0 h and the “AUClast Paclitaxel” value [15, 29] was 11052 ng·h/mL. For the same compound, the “Cmax Paclitaxel” value [15, 29] was 2488 ng/mL, the “Tmax Paclitaxel” value [15, 29] was 1.5 h and the “t1/2 Paclitaxel” value [15, 29] was 5.5 h. For the same compound, the “AUClast Paclitaxel” value [15, 30] was 13124 ng·h/mL, the “Cmax Paclitaxel” value [15, 30] was 3067 ng/mL and the “Tmax Paclitaxel” value [15, 30] was 1.4 h. For the same compound, the “t1/2 Paclitaxel” value [15, 30] was 5.3 h, the “Emax (% inhibition)” value [16] was 99 ± 0.10 % inhibition and the GI50 ([16]; Homo sapiens, medium pre-supplemented with 1 μM Compound A) was 0.46 ± 0.23 ng/mL (≈ 0.539 nM). The “Emax (% inhibition)” value [17] was 93 ± 4.5 % inhibition, the GI50 ([17]; Mus musculus, MS-1, medium pre-supplemented with 1 μM Compound A) was 1.8 ± 0.36 ng/mL (≈ 2.11 nM) and the GI50 [18, 21] was 3.9 ± 1 ng/mL (≈ 4.57 nM). The “Emax (% inhibition)” value [18] was 99 ± 1.4 % inhibition.

Reference: patent US20190314361A1 (Athenex Therapeutics Limited, priority 2018, published 2019)
